Data taken from US12042530B2, “Target peptides for immunotherapy and diagnostics” (University of Virginia Patent Foundation, priority 2012, dated 2024).
Read-outs that look alike come from different tables or passages of the source. Non-standard residues stand in square brackets, D forms with d. No end group written: not given here. pS = N[C@@H](COP(=O)(O)O)C(=O)O

How the values were obtained:
melanoma cells = experiment: T cell recognition of GSK-3β- and proteasome-inhibited melanoma cells; type: cell-based, human; conditions: for pS33-βcat-specific T cell recognition of melanoma cells: DM331 and SLM2, re-expression of peptide-MHC in presence of inhibitor (5 μM)
Description: Surface peptide-MHC complexes were denatured from the cells using a mild acid buffer as previously described (Robila et al., 2008) and then allowed to re-express peptide-MHC molecules in the presence of BIO, MeBIO, or 5 μM lactacystin for 12 hours. T cell recognition of the cells was evaluated after 5 hours incubation with pS33-βcat-specific T cells.

phosphoS33-β-catenin = experiment: Western blot of phosphoS33-β-catenin and β-catenin; type: cell-based, human; conditions: BIO in the presence of lactacystin
Description: Lysates were prepared from ˜80% confluent cells in buffer containing 2% Triton X 100 and protease and phosphatase inhibitors. Samples were separated on 8% SDS-PAGE (Thermo Fischer Scientific Inc., Waltham, Massachusetts, United States of America) and transferred to PVDF membranes (Millipore Immobilon-FL, 0.45 μm; Millipore Corporation, Billerica, Massachusetts, United States of America). Blots were probed with phosphoS33-β-catenin, β-catenin, and GAPDH antibodies overnight at 4° C. and developed by enhanced chemiluminescence (Millipore). Films were scanned and integrated density values determined using AlphaEase software and normalized to values obtained for GAPDH. In some cases, GSK-3 activity was inhibited using 5 μg BIO ((2′Z, 3′E)-6-Bromoindirubin-3′-oxime) and proteasomal degradation was blocked with 10 μg lactacystin (Calbiochem) before cells were lysed.

PBMCs [1] = experiment: 7-day recall ELISpot, AML patients, before and after stem cell transplantation; type: cell-based, human
Description: To develop a more complete understanding of phosphoantigen-directed T cell immunity in patients with leukemia, these studies were extended into AML using a panel of 14 AML-specific phosphopeptide antigens. A cohort of 12 patients in complete remission (CR) with AML (see Table 24) were assessed using 7-day recall responses, as measured by ELISpot, and compared against a cohort of 12 healthy donors (see FIGS. 14A and 16).
To test this hypothesis, all 12 AML patients underwent allogeneic SCT and immune reconstitution against 14 AML-specific phosphopeptide antigens was monitored. […] For some patients, immune reconstitution was studied in more detail. For patient AML8 marked expansions of 6 different phosphopeptide immune responses were observed (see FIG. 14E).
For ELISpot analysis, PBMCs and CD8^+ T cells were isolated fresh from healthy donors and patients. 1×10^6 PBMCs were isolated from both AML patients and healthy donors and resuspended in AIM-V media (10% human AB serum) in a 96 well plate. Peptide or phosphopeptides were added individually at 10 μg/ml and placed at 37° C. in CO2 incubator for 7 days. Cells were then harvested, washed 4 times, and re-challenged with phosphopeptides, peptides, or anti-CD3 (OKT3, 100 ng/ml, Mabtech, Inc., Mariemont, Ohio, United States of America) as per the manufacturer's instructions. […]

cancer cell lines = experiment: Recognition of naturally processed phosphopeptides on cancer cell lines by phosphopeptide-specific CTL (murine IFNγ); type: cell-based, human; conditions: ovarian, melanoma and breast cancer lines versus JY EBV-BLCL control
Description: FIGS. 9A and 9B are bar graphs of the recognition of naturally processed and presented phosphorylated peptides on cancer cells by the phosphopeptide-specific CTL. Phosphopeptide-specific CTL were incubated with the following cancer cell lines or EBV-transformed B lymphoblastoid cell lines (BLCL): COV413.AAD.A4 ovarian carcinoma, DM331.AAD.A4 and SLM2.AAD.A1 melanomas, MCF7.AAD.A2 and MDAMB231.AAD breast carcinomas, and JY EBV-BLCL. Supernatants were harvested and evaluated for the presence of murine IFNγ (produced by murine CTL lines). […] The designation “pS” denotes a phosphoserine residue. The ordinate indicates murine IFNγ in pg/ml. The abscissa indicates each cell line.

PBMCs [2] = experiment: Memory T cell response, IFNγ ELISpot, healthy A2 positive donors; type: cell-based, human; conditions: for Day 7 ELISpot, donor alpha: healthy A2 positive donor alpha; for Day 7 ELISpot, donor one: healthy A2 positive donor one
CD8+ T cells = experiment: ELISpot T cell recognition assay, healthy donors, leukemia-associated phosphopeptides; type: cell-based, human; conditions: 10 HLA-A2+ and 10 HLA-B7+ healthy individuals, 7 day cultures
Description: Immunity against 76 HLA-B7 and 10 HLA-A2 leukemia-associated phosphopeptide antigens was assessed in 10 HLA-A2^+ and 10 HLA-B7^+ healthy individuals (see FIG. 12A).
For ELISpot analysis, PBMCs and CD8^+ T cells were isolated fresh from healthy donors and patients. 1×10^6 PBMCs were isolated from both AML patients and healthy donors and resuspended in AIM-V media (10% human AB serum) in a 96 well plate. Peptide or phosphopeptides were added individually at 10 μg/ml and placed at 37° C. in CO2 incubator for 7 days. Cells were then harvested, washed 4 times, and re-challenged with phosphopeptides, peptides, or anti-CD3 (OKT3, 100 ng/ml, Mabtech, Inc., Mariemont, Ohio, United States of America) as per the manufacturer's instructions. Individual cytokine-producing cells were identified as dark spots after a 15 minute reaction with 5-bromo-4-chloro-3-indolyl phosphate and NBT by means of an alkaline phosphatase conjugate substrate (Mabtech).

[3] = tested on: RQA(pS)IELPSMAV-specific T cells; experiment: Recognition of peptide-loaded targets by RQA(pS)[…]-specific T cells (IFNγ); type: cell-based, human
Excerpt: Three of the HLA-A2 and two HLA-B7 phosphopeptides were derived from LSP-1, a protein previously identified as a potential tumor marker. One of these, RQA(pS)[…] (SEQ ID NO: 452), was selected for initial immunological studies due to its widespread expression on all HLA-A2^+ tumor samples analyzed and also because it was present on tumor samples at high copy number. Monocyte-derived dendritic cells were generated from healthy donors and used to prime autologous T cells and HLA-phosphopeptide tetramers were used to enrich phosphopeptide-specific T cells, between each stimulation steps, to produce a monospecific T cell line (see FIG. 11A). […] Recognition was, therefore, phosphate-dependent and phosphopeptide-specific.
HLA-A2 restricted RQA-V (SEQ ID NO: 2375) phosphopeptide-specific cytotoxic CD8^+ T cells were generated from healthy donors as described previously in Ho et al., 2006. Briefly, PBMCs were cultured in flat-bottom 6-well plates at 10^7 cells per well in RPMI 1640 plus 10% heat-inactivated human AB serum (10% media). GM-CSF (800 IU/mL), and IL-4 (1000 units/mL; PeproTech) were added on day 0 to generate dendritic cells (DC). On day 1, a maturation cocktail was added containing 100 ng/ml TNFα, 100 ng/ml IL-1β, 10,000 IU/ml IL-6, 8,000 IU/ml GM-CSF, and 10 μg/ml PGE2. […]

HLA A*0301 = HLA A*0301 (Homo sapiens, UniProt P04439); experiment: Binding to HLA A*0301 (statement)
HLA A*0201 = HLA A*0201 (Homo sapiens, UniProt P04439, D140Y/D185E/D98H/E176V/E277Q/G131W/G231S/I119V/I121R/I166T/I218V/L300P/L318F/N151K/N90K/P208A/P217A/Q86G/Q94H/R138H/R169H/T345S); experiment: Binding to HLA A*0201 (statement)

`O=C1Nc2cc(Br)ccc2/C1=C1/Nc2ccccc2/C1=N\O` [BIO, (2′Z, 3′E)-6-Bromoindirubin-3′-oxime] was tested, and the “pS33-βcat-specific T cell recognition of melanoma cells” value (melanoma cells) was “completely abrogated recognition of melanoma cells”, the “T cell recognition of Tyr369” value (melanoma cells; control epitope) was “unaffected” and the “Amount of phosphoS33-β-catenin in melanoma cells” value (phosphoS33-β-catenin) was “significantly diminished”.
`CC(=O)NC(CSC(=O)C1(C(O)C(C)C)NC(=O)C(C)C1O)C(=O)O` (stereo not drawn) [lactacystin, 2-(acetylamino)-3-[({3-hydroxy-2-[1-hydroxy-2-methylpropyl]-4-methyl-5-oxopyrrolidin-2-yl}carbonyl)sulfanyl]propanoic acid] was tested, and the “pS33-βcat-specific T cell recognition of melanoma cells” value (melanoma cells) was “abolished” and the “Amount of phosphoS33-β-catenin in melanoma cells” value (phosphoS33-β-catenin) was “substantial increase”.
“EPRsPSHSM (EPR[pS]PSHSM; listed as Homo sapiens) [SEQ ID NO: 270]” was tested, and the “Immune reconstitution after allogeneic stem cell transplantation” value (PBMCs [1]) was “dramatic expansion”.
“GLLGpSPVRA (GLLG[pS]PVRA; listed as Homo sapiens) [SEQ ID NO: 396]” was tested, and the “Recognition of the endogenous phosphopeptide by specific CTL lines” value (cancer cell lines) was “recognized the phosphopeptide on all the cancer cell lines but not the control cell line”, the “Day 7 ELISpot, donor alpha” value (PBMCs [2]) was “+ (3-24 spots)” and the “Day 7 ELISpot, donor one” value (PBMCs [2]) was “+ (3-24 spots)”.
“KLIDRTE(pS)L (KLIDRTE[pS]L; listed as Homo sapiens) [SEQ ID NO: 440]” was tested, and the “Immune response in healthy donors, in words” value (from here on “Immune response”) (CD8+ T cells) was “not immunogenic”.
In the case of QPRtPSPLVL [SEQ ID NO: 304], the “Immune reconstitution after allogeneic stem cell transplantation” value (PBMCs [1]) is reported as “dramatic expansion” and the “Immune response” value (CD8+ T cells) is reported as “some of the strongest responses”.
For “RQA(pS)IELPSM (RQA[pS]IELPSM; listed as Homo sapiens) [SEQ ID NO: 451]”, the “Immune response” value (CD8+ T cells) was “not immunogenic”.
With “RQA(pS)IELPSMAV (RQA[pS]IELPSMAV; listed as Homo sapiens) [SEQ ID NO: 452]” the “Immune response” value (CD8+ T cells) was “some of the strongest responses” and the “IFNγ production by RQA(pS)IELPSMAV-specific T cells in response to the peptide” value [3] was “produced IFNγ”.
In the case of RQASIELPSMAV [reference compound], the “IFNγ production by RQA(pS)IELPSMAV-specific T cells in response to the peptide” value [3] is reported as “not to the unphosphorylated RQASIELPSMAV”.
“RVApSPTSGV (RVA[pS]PTSGV; listed as Homo sapiens) [SEQ ID NO: 418]” was tested, and the “Binding to / presentation by HLA A*0301” value (HLA A*0301) was “cannot be presented by the A*0301 molecule”, the “Binding to / presentation by HLA A*0301” value (HLA A*0301; listed as RVA) was “binds to A*0301” and the “Recognition of the endogenous phosphopeptide by specific CTL lines” value (cancer cell lines) was “recognized the phosphopeptide on all the cancer cell lines but not the control cell line”. For the same compound, the “Day 7 ELISpot, donor alpha” value (PBMCs [2]) was “++ (25-99 spots)”, the “Day 7 ELISpot, donor one” value (PBMCs [2]) was “++ (25-99 spots)” and the “Memory T cell response, in words” value (PBMCs [2]; healthy donors / patient) was “None of the HD recognized or responded to it”. For the same compound, the “Binding to HLA A*0201” value (HLA A*0201) was “binds to HLA A*0201” and the “Binding to HLA A*0201” value (HLA A*0201; listed as RVA) was “did not bind to A*0201”.
